IC50 data for 2 compounds are collected here from BindingDB's records for doi:10.1016/j.bmcl.2005.01.080 (University of Minnesota, 2005).

For this experiment, the target named is Eukaryotic translation initiation factor 4E (Homo sapiens, UniProt P06730). Put plainly: Inhibitory concentration against 7-methyl-GTP binding to eukaryotic translation initiation factor 4E.
Chain of Eukaryotic translation initiation factor 4E (P06730 whole entry): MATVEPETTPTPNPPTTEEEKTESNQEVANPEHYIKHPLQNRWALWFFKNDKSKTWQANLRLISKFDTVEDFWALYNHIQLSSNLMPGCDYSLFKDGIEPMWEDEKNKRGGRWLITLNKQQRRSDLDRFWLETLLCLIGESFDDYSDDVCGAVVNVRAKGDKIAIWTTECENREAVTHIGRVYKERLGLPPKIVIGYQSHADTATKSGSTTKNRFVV

As to `CN1CN(C2O[C@H](CO)[C@@H](O)[C@H]2O)C2=NC=NC(O)C21` (some centres not stated), the 50% inhibitory concentration (IC50) was above 400 µM.
As for `CN1CN(C2O[C@H](CO)[C@@H](O)[C@H]2O)c2nc(N)[nH]c(=S)c21` (some centres not stated), the IC50 is above 400 µM.
